Molecular target: T1, streptavidin (Streptomyces avidinii, UniProt P22629)
T1 construct: purchased GE Healthcare (Little Chalfont, UK)
Test: Cy5-streptavidin binding on HotSpot discovery array, 5-mer L-peptide library
Settings: for S/B: signal to background ratio
Text: To identify hotspot sequences that bind to streptavidin (SA), we bound Cy5-SA to an array library of 2,476,099 5-mer L-peptides synthesized with 19 of 20 natural amino acids (excluding cysteine). The fluorescence signal intensity was aggregated across three independently synthesized arrays; then the 2,047 peptides with a signal-to-background ratio (S/B) >4 were selected. The data was further filtered to select 1,100 peptides for which signal intensities were highly correlated on all 3 arrays (the percentage of mean deviation to mean was <10%, see Supplementary dataset Table 2A). Most selected sequences (1,019 of 1,100) contained HP, PQ, or PM sequences: their presence would be expected in the well-known HPQ and HPM streptavidin binders[13]–[18].
The comprehensive peptide library included 2,476,099 5-mer peptides synthesized in a single copy with 19 of 20 L- or D-amino acids (excluding cysteine). Libraries were flanked on both N- and C-termini by linkers of 1 or 3 amino acids using a 3:1 glycine-serine mixture.
Cy5™-streptavidin (Cy5-SA) was purchased from GE Healthcare (Little Chalfont, UK). Freshly deprotected arrays were used in each experiment. Streptavidin binding to all arrays was performed with 0.5 µg/ml Cy5-SA either in binding buffer containing 10 mM Tris-HCl (pH 7.4), 1% alkali-soluble casein (EMD Millipore), 0.05% Tween-20 or in 10 mM Tris-HCl (pH 7.4), 4% BSA (Roche, Basel, Switzerland), 0.05% Tween-20 in a 30 mL PAP Jar container (Evergreen Scientific, Vernon, CA) overnight at 4° C. After incubation, arrays were washed in 20 mM Tris-HCl (pH 7.8), 0.2 M NaCl, 1% SDS or 1X TBS (pH 7.4) for 30 sec followed by a 1 min wash in water, and then dried by spinning in a microcentrifuge equipped with an array holder.
Cy5 fluorescence intensity of the arrays was measured with an MS200 scanner (Roche NimbleGen, Madison, WI) at resolution 2 µm, wavelength 635 nm, gain 25%, and laser intensity 100%. Cy5 signal intensities were extracted using Image Extraction Software (Roche NimbleGen). Data pre-processing, normalization, and statistical tests were performed using the language R. Data visualization and analysis was performed with the Spotfire 6.5.0 (Tibco, Boston, MA) software platform. Distance analysis and principle component analysis of distance matrices were performed with the R package PEPLIB[19].

[1] = 5-mer L-peptide library array, Cy5-streptavidin, from the average of three arrays
[2] = 5-mer L-peptide library array, Cy5-streptavidin, from average of three arrays
[3] = 5-mer L-peptide library array, Cy5-streptavidin
[4] = 5-mer L-peptide library, from the average of three arrays

T1 sequence (P22629 25-183): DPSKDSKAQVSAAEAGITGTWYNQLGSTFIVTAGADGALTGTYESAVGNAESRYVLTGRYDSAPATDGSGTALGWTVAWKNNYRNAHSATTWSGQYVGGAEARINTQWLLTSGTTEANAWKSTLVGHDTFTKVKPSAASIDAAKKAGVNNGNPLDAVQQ

HHPQV
S/B (signal to background ratio) [1]: 71.9

HIHPQ
S/B (signal to background ratio) [1]: 104.7

HKHPQ
S/B (signal to background ratio) [1]: 86.4

HLHPM
S/B (signal to background ratio) [2]: 40.7

HMHPM
S/B (signal to background ratio) [1]: 61.8

HMHPQ
S/B (signal to background ratio) [2]: 133.8

HNHPM
S/B (signal to background ratio) [2]: 37.6

HNHPQ
S/B (signal to background ratio) [2]: 146.9

HPADF
S/B [3]: 6.3

HPAFM
S/B [3]: 5.7

HPAFQ
S/B (signal to background ratio) [4]: 4.5

HPAYT
S/B (signal to background ratio) [4]: 5.1

HPHPQ
S/B (signal to background ratio) [2]: 185.1

HPLPW
S/B [3]: 8.0

HPMAF
S/B [3]: 18.0

HPMAM
S/B [3]: 6.5

HPMAP
S/B (signal to background ratio) [2]: 37.9

HPMAQ
S/B [3]: 7.2

HPMFA
S/B [3]: 17.2

HPMFG
S/B (signal to background ratio) [2]: 21.9

HPMFH
S/B [3]: 6.8

HPMFI
S/B (signal to background ratio) [4]: 4.7

HPMFL
S/B [3]: 5.4

HPMFN
S/B (signal to background ratio) [2]: 39.1

HPMFR
S/B [3]: 5.2

HPMFS
S/B (signal to background ratio) [2]: 20.6

HPMFV
S/B [3]: 7.5

HPMFW
S/B [3]: 6.5

HPMGG
S/B (signal to background ratio) [1]: 60.6

HPMGH
S/B [3]: 15.2

HPMGI
S/B [3]: 7.9

HPMGK
S/B [3]: 5.3

HPMGL
S/B [3]: 9.0

HPMGN
S/B (signal to background ratio) [2]: 22.1

HPMGQ
S/B (signal to background ratio) [2]: 20.5

HPMGT
S/B [3]: 12.0

HPMGV
S/B [3]: 9.2

HPMGW
S/B [3]: 18.2

HPMHG
S/B [3]: 13.1

HPMHM
S/B (signal to background ratio) [4]: 4.4

HPMHP
S/B [3]: 14.9

HPMHW
S/B (signal to background ratio) [4]: 4.9

HPMKN
S/B [3]: 8.2

HPMKP
S/B (signal to background ratio) [4]: 4.6

HPMMA
S/B [3]: 5.3

HPMMF
S/B (signal to background ratio) [4]: 5.1

HPMMW
S/B [3]: 5.7

HPMNA
S/B [3]: 17.1

HPMNE
S/B [3]: 5.7

HPMNH
S/B (signal to background ratio) [4]: 4.4

HPMNM
S/B [3]: 9.1

HPMNR
S/B [3]: 5.6

HPMNY
S/B (signal to background ratio) [4]: 4.6

HPMPD
S/B [3]: 5.4

HPMPW
S/B [3]: 8.2

HPMQA
S/B [3]: 6.4

HPMQF
S/B (signal to background ratio) [4]: 4.9

HPMQG
S/B [3]: 16.2

HPMQH
S/B (signal to background ratio) [4]: 4.5

HPMQN
S/B [3]: 8.8

HPMQS
S/B (signal to background ratio) [4]: 4.9

HPMRA
S/B (signal to background ratio) [4]: 4.8

HPMRF
S/B (signal to background ratio) [4]: 4.6

HPMRG
S/B [3]: 9.3

HPMRH
S/B (signal to background ratio) [4]: 4.9

HPMRN
S/B [3]: 8.8

HPMRS
S/B [3]: 7.0

HPMRT
S/B (signal to background ratio) [4]: 4.3

HPMRW
S/B [3]: 12.6

HPMRY
S/B [3]: 5.8

HPMSA
S/B [3]: 8.0

HPMSG
S/B (signal to background ratio) [2]: 45.4

HPMSR
S/B (signal to background ratio) [4]: 4.4

HPMST
S/B (signal to background ratio) [4]: 4.2

HPMSY
S/B (signal to background ratio) [4]: 4.8

HPMTP
S/B [3]: 5.6

HPMVA
S/B [3]: 12.1

HPMVF
S/B [3]: 5.3

HPMVS
S/B [3]: 8.8

HPMYA
S/B [3]: 11.4

HPMYF
S/B [3]: 12.1

HPMYH
S/B [3]: 13.0

HPMYM
S/B [3]: 8.3

HPMYP
S/B [3]: 15.8

HPMYQ
S/B [3]: 5.7

HPMYR
S/B [3]: 5.9

HPMYS
S/B [3]: 8.6

HPMYY
S/B [3]: 8.3

HPQAA
S/B (signal to background ratio) [2]: 43.7

HPQAF
S/B (signal to background ratio) [2]: 40.6

HPQAG
S/B (signal to background ratio) [2]: 125.6

HPQAI
S/B [3]: 10.7

HPQAL
S/B [3]: 10.3

HPQAM
S/B [3]: 18.6

HPQAP
S/B (signal to background ratio) [1]: 82.5

HPQAV
S/B [3]: 17.8

HPQDG
S/B [3]: 15.1

HPQFA
S/B (signal to background ratio) [1]: 113.5

HPQFF
S/B (signal to background ratio) [1]: 71.6

HPQFG
S/B (signal to background ratio) [2]: 141.0

HPQFH
S/B (signal to background ratio) [1]: 64.4

HPQFK
S/B [3]: 17.7

HPQFL
S/B (signal to background ratio) [2]: 42.4

HPQFN
S/B (signal to background ratio) [1]: 113.3

HPQFP
S/B (signal to background ratio) [2]: 141.5

HPQFQ
S/B (signal to background ratio) [1]: 90.6

HPQFR
S/B (signal to background ratio) [2]: 23.8

HPQFS
S/B (signal to background ratio) [2]: 123.4

HPQFT
S/B (signal to background ratio) [1]: 92.5

HPQFV
S/B (signal to background ratio) [1]: 69.2

HPQFW
S/B (signal to background ratio) [2]: 53.0

HPQFY
S/B (signal to background ratio) [1]: 70.7

HPQGA
S/B (signal to background ratio) [1]: 92.1

HPQGD
S/B (signal to background ratio) [1]: 62.3

HPQGE
S/B (signal to background ratio) [2]: 40.1

HPQGF
S/B (signal to background ratio) [1]: 63.7

HPQGG
S/B (signal to background ratio) [2]: 131.5

HPQGH
S/B (signal to background ratio) [1]: 86.0

HPQGK
S/B (signal to background ratio) [2]: 29.8

HPQGN
S/B (signal to background ratio) [1]: 108.4

HPQGP
S/B (signal to background ratio) [2]: 162.1

HPQGQ
S/B (signal to background ratio) [1]: 73.5

HPQGS
S/B (signal to background ratio) [1]: 105.2

HPQGT
S/B (signal to background ratio) [1]: 67.0

HPQGV
S/B (signal to background ratio) [2]: 45.0

HPQGW
S/B (signal to background ratio) [1]: 60.3

HPQGY
S/B (signal to background ratio) [2]: 53.6

HPQHF
S/B (signal to background ratio) [2]: 18.9

HPQHG
S/B (signal to background ratio) [2]: 57.1

HPQHL
S/B [3]: 9.2

HPQHN
S/B (signal to background ratio) [2]: 28.0

HPQHS
S/B [3]: 18.1

HPQHV
S/B [3]: 13.6

HPQHY
S/B [3]: 11.4

HPQIF
S/B [3]: 6.3

HPQIG
S/B (signal to background ratio) [2]: 31.0

HPQIN
S/B [3]: 12.2

HPQIP
S/B (signal to background ratio) [4]: 4.0

HPQIS
S/B [3]: 8.8

HPQKF
S/B (signal to background ratio) [4]: 4.8

HPQKG
S/B [3]: 18.2

HPQKN
S/B [3]: 7.8

HPQKY
S/B [3]: 5.5

HPQLG
S/B [3]: 9.1

HPQLY
S/B (signal to background ratio) [4]: 4.1

HPQMG
S/B (signal to background ratio) [1]: 59.2

HPQMR
S/B [3]: 7.1

HPQMS
S/B (signal to background ratio) [2]: 20.7

HPQMY
S/B [3]: 11.1

HPQNA
S/B (signal to background ratio) [1]: 108.8

HPQND
S/B (signal to background ratio) [2]: 53.5

HPQNE
S/B (signal to background ratio) [2]: 48.0

HPQNF
S/B (signal to background ratio) [1]: 94.0

HPQNI
S/B (signal to background ratio) [2]: 48.9

HPQNK
S/B (signal to background ratio) [2]: 28.4

— paper PMC5608804, “Stepwise Evolution Improves Identification of Diverse Peptides Binding to a Protein Target” (Scientific Reports, 2017)
